As usually defined, the IC50 is the midpoint of a concentration-inhibition curve.

The target of this assay is T1, oestrogen receptor (ER) (Homo sapiens, UniProt P03372).
T1 construct: These MVLN cells express, along with the functional oestrogen receptor (ER), a reporter construct; endogenous in cells; host or cells: MVLN cells (MCF7 derivative with ER-responsive luciferase reporter)
T1 sequence (P03372 1-595): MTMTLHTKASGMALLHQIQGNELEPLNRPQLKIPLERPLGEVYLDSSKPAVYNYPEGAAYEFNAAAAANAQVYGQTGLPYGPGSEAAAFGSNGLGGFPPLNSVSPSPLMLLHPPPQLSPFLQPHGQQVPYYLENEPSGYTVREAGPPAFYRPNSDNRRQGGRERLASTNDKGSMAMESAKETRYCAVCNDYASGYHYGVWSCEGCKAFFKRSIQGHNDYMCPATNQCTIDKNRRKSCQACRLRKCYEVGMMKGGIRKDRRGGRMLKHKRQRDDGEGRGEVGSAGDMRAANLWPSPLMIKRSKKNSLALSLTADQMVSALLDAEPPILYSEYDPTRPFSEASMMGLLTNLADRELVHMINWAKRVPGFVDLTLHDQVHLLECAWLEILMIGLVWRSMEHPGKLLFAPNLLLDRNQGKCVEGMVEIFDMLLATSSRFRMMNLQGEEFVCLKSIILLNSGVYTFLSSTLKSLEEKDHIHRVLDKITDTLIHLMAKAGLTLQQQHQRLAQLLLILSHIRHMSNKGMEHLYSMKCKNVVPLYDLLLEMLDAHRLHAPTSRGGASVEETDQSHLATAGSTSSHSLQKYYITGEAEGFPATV
As to the kind of experiment: Anti-oestrogenic action in MVLN cells (inhibition of estradiol-induced luciferase, transactivation antagonism). In kind it is cell-based. The note with it: inhibition of estradiol-induced luciferase activity, read-out: Anti-oestrogenic action in vitro: MVLN transactivation antagonism IC50. The gist of the method: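 MCF7-derived MVLN cells carrying an ER-driven luciferase reporter; test compounds applied with estradiol, and anti-oestrogenic action scored as inhibition of the estradiol-induced luciferase signal.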

`CN(CCCCCCC1=C(c2ccccc2)CCCc2cc(O)ccc21)CCCS(=O)(=O)CCCC(F)(F)C(F)(F)F` [Example 63, 9-[6-(Methyl{3-[(4,4,5,5,5-pentafluoropentyl)sulphonyl]propyl}amino)hexyl]-8-phenyl-6,7-dihydro-5H-benzo[7]annulen-3-ol]: the IC50 stood at 9 nM. `CCN(CCCCCCC1=C(c2cccc(O)c2)CCCc2cc(O)ccc21)CCCS(=O)(=O)CCC(F)(F)F` [Example 65, 9-[6-(Ethyl{3-[(3,3,3-trifluoropropyl)sulphonyl]propyl}amino)hexyl]-8-(3-hydroxyphenyl)-6,7-dihydro-5H-benzo[7]annulen-3-ol]: the half-maximal inhibitory concentration (IC50) is 6 nM. With `CN(CCCCCCC1=C(c2ccccc2)CCCc2cc(O)ccc21)CCCCS(=O)(=O)CCCC(F)(F)C(F)(F)F` [Example 67, 9-[6-(Methyl{4-[(4,4,5,5,5-pentafluoropentyl)sulphonyl]butyl}amino)hexyl]-8-phenyl-6,7-dihydro-5H-benzo[7]annulen-3-ol] the figure was 3 nM. With `CCN(CCCCCCC1=C(c2ccccc2)CCCc2cc(O)ccc21)CCCS(=O)(=O)CCCC(F)(F)C(F)(F)F` [Example 69, 9-[6-(Ethyl{3-[(4,4,5,5,5-pentafluoropentyl)sulphonyl]propyl}amino)hexyl]-8-phenyl-6,7-dihydro-5H-benzo[7]annulen-3-ol] the figure was 6 nM.

Consider `O=S(=O)(CCCN(CCO)CCCCCCC1=C(c2ccccc2)CCCc2cc(O)ccc21)CCCC(F)(F)C(F)(F)F` [Example 71, 9-{6-[(2-Hydroxyethyl){3-[(4,4,5,5,5-pentafluoropentyl)sulphonyl]propyl}amino]hexyl}-8-phenyl-6,7-dihydro-5H-benzo[7]annulen-3-ol], for which the IC50 was 13 nM.

As for `O=S(=O)(CCCN(CCCO)CCCCCCC1=C(c2ccccc2)CCCc2cc(O)ccc21)CCCC(F)(F)C(F)(F)F` [Example 73, 9-{6-[(3-Hydroxypropyl){3-[(4,4,5,5,5-pentafluoropentyl)sulphonyl]propyl}amino]hexyl}-8-phenyl-6,7-dihydro-5H-benzo[7]annulen-3-ol], the IC50 came out at 17 nM. With `CC(C)(O)CN(CCCCCCC1=C(c2ccccc2)CCCc2cc(O)ccc21)CCCS(=O)(=O)CCCC(F)(F)C(F)(F)F` [Example 75, 9-{6-[(2-Hydroxy-2-methylpropyl){3-[(4,4,5,5,5-pentafluoropentyl)sulphonyl]propyl}amino]hexyl}-8-phenyl-6,7-dihydro-5H-benzo[7]annulen-3-01] the figure was 14 nM. Then `CCN(CCCCCCC1=C(c2ccccc2)CCCc2cc(O)ccc21)CCCS(=O)(=O)CCC(F)(F)F` [Example 77, 9-[6-(Ethyl{3-[(3,3,3-trifluoropropyl)sulphonyl]propyl}amino)hexyl]-8-phenyl-6,7-dihydro-5H-benzo[7]annulen-3-ol], with 61 nM. Then `O=S(=O)(CCCN(CCO)CCCCCCC1=C(c2ccccc2)CCCc2cc(O)ccc21)CCC(F)(F)F` [Example 79, 9-{6-[(2-Hydroxyethyl){3-[(3,3,3-trifluoropropyl)sulphonyl]propyl}amino]hexyl}-8-phenyl-6,7-dihydro-5H-benzo[7]annulen-3-ol], with 9 nM; and `O=S(=O)(CCCN(CCCO)CCCCCCC1=C(c2ccccc2)CCCc2cc(O)ccc21)CCC(F)(F)F` [Example 81, 9-{6-[(3-Hydroxypropyl){3-[(3,3,3-trifluoropropyl)sulphonyl]propyl}amino]hexyl}-8-phenyl-6,7-dihydro-5H-benzo[7]annulen-3-ol], with 39 nM. Consider `CC(C)(O)CN(CCCCCCC1=C(c2ccccc2)CCCc2cc(O)ccc21)CCCS(=O)(=O)CCC(F)(F)F` [Example 83, 9-{6-[(2-Hydroxy-2-methylpropyl){3-[(3,3,3-trifluoropropyl)sulphonyl]propyl}amino]hexyl}-8-phenyl-6,7-dihydro-5H-benzo[7]annulen-3-ol], for which the IC50 was 7 nM. Then `CN(CCCCCC1=C(c2ccccc2)CCCc2cc(O)ccc21)CCCCS(=O)(=O)CCCC(F)(F)C(F)(F)F` [Example 85, 9-[5-(Methyl{4-[(4,4,5,5,5-pentafluoropentyl)sulphonyl]butyl}amino)pentyl]-8-phenyl-6,7-dihydro-5H-benzo[7]annulen-3-ol], with 40 nM. Then `CCN(CCCCCCC1=C(c2cccc(O)c2)CCCc2cc(O)ccc21)CCCS(=O)(=O)CCCC(F)(F)C(F)(F)F` [Example 90, 9-[6-(Ethyl{3-[(4,4,5,5,5-pentafluoropentyl)sulphonyl]propyl}amino)hexyl]-8-(3-hydroxyphenyl)-6,7-dihydro-5H-benzo[7]annulen-3-ol], with 2 nM; and `O=S(=O)(CCCN(CCO)CCCCCCC1=C(c2cccc(O)c2)CCCc2cc(O)ccc21)CCCC(F)(F)C(F)(F)F` [Example 91, 9-{6-[(2-Hydroxyethyl){3-[(4,4,5,5,5-pentafluoropentyl)sulphonyl]propyl}amino]hexyl}-8-(3-hydroxyphenyl)-6,7-dihydro-5H-benzo[7]annulen-3-ol], with 3 nM. With `O=S(=O)(CCCN(CCCO)CCCCCCC1=C(c2cccc(O)c2)CCCc2cc(O)ccc21)CCCC(F)(F)C(F)(F)F` [Example 92, 8-(3-Hydroxyphenyl)-9-{6-[(3-hydroxypropyl){3-[(4,4,5,5,5-mpentafluoropentyl)sulphonyl]propyl}amino]hexyl}-6,7-dihydro-5H-benzo[7]annulen-3-ol] the figure was 1 nM; with `CC(C)(O)CN(CCCCCCC1=C(c2cccc(O)c2)CCCc2cc(O)ccc21)CCCS(=O)(=O)CCCC(F)(F)C(F)(F)F` [Example 93, 9-{6-[(2-Hydroxy-2-methylpropyl){3-[(4,4,5,5,5-pentafluoropentyl)sulphonyl]propyl}amino]hexyl}-8-(3-hydroxyphenyl)-6,7-dihydro-5H-benzo[7]annulen-3-ol], 1 nM; with `O=S(=O)(CCCN(CCO)CCCCCCC1=C(c2cccc(O)c2)CCCc2cc(O)ccc21)CCC(F)(F)F` [Example 98, 9-{6-[(2-Hydroxyethyl){3-[(3,3,3-trifluoropropyl)sulphonyl]propyl}amino]hexyl}-8-(3-hydroxyphenyl)-6,7-dihydro-5H-benzo[7]annulen-3-ol], 3 nM. Turning to `O=S(=O)(CCCN(CCCO)CCCCCCC1=C(c2cccc(O)c2)CCCc2cc(O)ccc21)CCC(F)(F)F` [Example 99, 8-(3-Hydroxyphenyl)-9-{6-[(3-hydroxypropyl){3-[(3,3,3-trifluoropropyl)sulphonyl]propyl}amino]hexyl}-6,7-dihydro-5H-benzo[7]annulen-3-ol], the IC50 was 8 nM. For the molecule `CC(C)(O)CN(CCCCCCC1=C(c2cccc(O)c2)CCCc2cc(O)ccc21)CCCS(=O)(=O)CCC(F)(F)F` [Example 100, 9-{6-[(2-Hydroxy-2-methylpropyl){3-[(3,3,3-trifluoropropyl)sulphonyl]propyl}amino]hexyl}-8-(3-hydroxyphenyl)-6,7-dihydro-5H-benzo[7]annulen-3-ol], the IC50 stood at 3 nM. With `CN(CCCCCCC1=C(c2ccc(F)c(O)c2)CCCc2cc(O)c(F)cc21)CCCS(=O)(=O)CCCC(F)(F)C(F)(F)F` [Example 101, 2-Fluoro-8-(4-fluoro-3-hydroxyphenyl)-9-[6-(methyl{3-[(4,4,5,5,5-pentafluoropentyl)sulphonyl]propyl}amino)hexyl]-6,7-dihydro-5H-benzo[7]annulen-3-ol] the figure was 3 nM; with `CN(CCCCCCC1=C(c2ccccc2)CCCc2c1ccc(O)c2Cl)CCCCS(=O)(=O)CCCC(F)(F)C(F)(F)F` [Example 103, 4-Chloro-9-[6-(methyl{4-[(4,4,5,5,5-pentafluoropentyl)sulphonyl]butyl}amino)hexyl]-8-phenyl-6,7-dihydro-5H-benzo[7]annulen-3-ol], 26 nM.

On to `COCCN(CCCCCCC1=C(c2ccc(F)c(O)c2)CCCc2cc(O)ccc21)CCCS(=O)(=O)CCCC(F)(F)C(F)(F)F` [Example 105, 8-(4-Fluoro-3-hydroxyphenyl)-9-{6-[(2-methoxyethyl){3-[(4,4,5,5,5-pentafluoropentyl)sulphonyl]propyl}amino]hexyl}-6,7-dihydro-5H-benzo[7]annulen-3-ol], for which the IC50 was 2 nM. Consider `COCCN(CCCCCCC1=C(c2cccc(O)c2)CCCc2cc(O)ccc21)CCCS(=O)(=O)CCCC(F)(F)C(F)(F)F` [Example 106, 8-(3-Hydroxyphenyl)-9-{6-[(2-methoxyethyl){3-[(4,4,5,5,5-pentafluoropentyl)sulphonyl]propyl}amino]hexyl}-6,7-dihydro-5H-benzo[7]annulen-3-ol], for which the IC50 is 1 nM. On to `COCCCN(CCCCCCC1=C(c2cccc(O)c2)CCCc2cc(O)ccc21)CCCS(=O)(=O)CCCC(F)(F)C(F)(F)F` [Example 107, 8-(3-Hydroxyphenyl)-9-{6-[(3-methoxypropyl){3-[(4,4,5,5,5-pentafluoropentyl)sulphonyl]propyl}amino]hexyl}-6,7-dihydro-5H-benzo[7]annulen-3-ol], for which the IC50 came to 3 nM.

For the origin of these results see patent publication US20150080438A1, “6,7-Dihydro-5H-benzo[7]annulene derivatives, processes for their preparation, pharmaceutical products comprising them and their use for preparing medicaments” (Bayer Intellectual Property GmbH, priority 2011, published 2015).
